According to PubChem BioAssay AID1919010 (Molecular Pharmacology Branch, DTP, NCI, 2023):

Test system: Hs578T complex spheroid growth, percent test/control
Test: Anticancer human tumor Hs578T cell line growth inhibition [AhR];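 note: luminescent viability signal as a proxy for spheroid growth; spheroids exposed to agents for one week after three days of growth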
Conditions: for IC50: curve of first compound; for viability, T/C: stronger effect = lower value
Summary of the method: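 Spheroids combined tumor cells with HUVEC endothelial cells and human MSCs as stroma. AhR antagonists were paired with standard or investigational drugs, each dosed in half-log steps down from near clinical Cmax, or from 10 microM where Cmax was unknown.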

[1] = second compound 0.1 µM, first compound 0.0316 µM
[2] = second compound 0.1 µM, first compound 0.1 µM
[3] = second compound 0.1 µM, first compound 0.316 µM
[4] = second compound 0.1 µM, first compound 1 µM
[5] = second compound 0.1 µM, first compound 3.16 µM
[6] = second compound 0.1 µM, first compound 10 µM
[7] = second compound 0.316 µM, first compound 0.0316 µM
[8] = second compound 0.316 µM, first compound 0.1 µM
[9] = second compound 0.316 µM, first compound 0.316 µM
[10] = second compound 0.316 µM, first compound 1 µM
[11] = second compound 0.316 µM, first compound 3.16 µM
[12] = second compound 0.316 µM, first compound 10 µM
[13] = second compound 1 µM, first compound 0.0316 µM
[14] = second compound 1 µM, first compound 0.1 µM
[15] = second compound 1 µM, first compound 0.316 µM
[16] = second compound 1 µM, first compound 1 µM
[17] = second compound 1 µM, first compound 3.16 µM
[18] = second compound 1 µM, first compound 10 µM
[19] = second compound 3.16 µM, first compound 0.0316 µM
[20] = second compound 3.16 µM, first compound 0.1 µM
[21] = second compound 3.16 µM, first compound 0.316 µM
[22] = second compound 3.16 µM, first compound 1 µM
[23] = second compound 3.16 µM, first compound 3.16 µM
[24] = second compound 3.16 µM, first compound 10 µM
[25] = second compound 10 µM, first compound 0.0316 µM
[26] = second compound 10 µM, first compound 0.1 µM
[27] = second compound 10 µM, first compound 0.316 µM
[28] = second compound 10 µM, first compound 1 µM
[29] = second compound 10 µM, first compound 3.16 µM
[30] = second compound 10 µM, first compound 10 µM

Work on `CC(C)c1c(-c2ccccc2)nc2c(C#N)c[nH]n2c1=O` + CC(CO)NC(=O)c1cc(-c2ccc(Cl)cc2)nn(-c2cnn(C)c2)c1=O yielded an IC50 (second compound 0.1 µM) of over 10000 nM, an IC50 (second compound 0.316 µM) of over 10000 nM and an IC50 (second compound 1 µM) of over 10000 nM. For the same compound, the IC50 (second compound 3.16 µM) was over 10000 nM, the IC50 (second compound 10 µM) was over 10000 nM and the viability, T/C [1] was 109%. The viability, T/C [2] was 116%, the viability, T/C [3] was 121% and the viability, T/C [4] was 113%. The viability, T/C [5] was 119%, the viability, T/C [6] was 111% and the viability, T/C [7] was 113%. For the same compound, the viability, T/C [8] was 129%, the viability, T/C [9] was 123% and the viability, T/C [10] was 111%. It also gave a viability, T/C [11] of 113%, a viability, T/C [12] of 115% and a viability, T/C [13] of 109%. The viability, T/C [14] was 124%, the viability, T/C [15] was 119% and the viability, T/C [16] was 113%. It also gave a viability, T/C [17] of 113%, a viability, T/C [18] of 116% and a viability, T/C [19] of 115%. The viability, T/C [20] was 124%, the viability, T/C [21] was 131% and the viability, T/C [22] was 113%. It also gave a viability, T/C [23] of 120%, a viability, T/C [24] of 120% and a viability, T/C [25] of 110%. It also gave a viability, T/C [26] of 113%, a viability, T/C [27] of 107% and a viability, T/C [28] of 110%. For the same compound, the viability, T/C [29] was 113% and the viability, T/C [30] was 110%.
`CC1COCCN1c1cc(-c2ccnn2C)c2ccnc(-c3ccn[nH]3)c2n1` (stereo not given) + CC(CO)NC(=O)c1cc(-c2ccc(Cl)cc2)nn(-c2cnn(C)c2)c1=O gave an IC50 (second compound 0.1 µM) of 526 nM, an IC50 (second compound 0.316 µM) of 778 nM and an IC50 (second compound 1 µM) of 615 nM. For the same compound, the IC50 (second compound 3.16 µM) was 384 nM, the IC50 (second compound 10 µM) was 860 nM and the viability, T/C (second compound 0.1 µM, first compound 0.00316 µM) was 118%. For the same compound, the viability, T/C (second compound 0.1 µM, first compound 0.01 µM) was 117%, the viability, T/C [1] was 114% and the viability, T/C [2] was 91.9%. It also gave a viability, T/C [3] of 53.6%, a viability, T/C [4] of 45.4% and a viability, T/C (second compound 0.316 µM, first compound 0.00316 µM) of 133%. The viability, T/C (second compound 0.316 µM, first compound 0.01 µM) was 124%, the viability, T/C [7] was 112% and the viability, T/C [8] was 96%. For the same compound, the viability, T/C [9] was 59.7%, the viability, T/C [10] was 47.8% and the viability, T/C (second compound 1 µM, first compound 0.00316 µM) was 123%. It also gave a viability, T/C (second compound 1 µM, first compound 0.01 µM) of 126%, a viability, T/C [13] of 122% and a viability, T/C [14] of 89.8%. It also gave a viability, T/C [15] of 56.2%, a viability, T/C [16] of 45.5% and a viability, T/C (second compound 3.16 µM, first compound 0.00316 µM) of 121%. For the same compound, the viability, T/C (second compound 3.16 µM, first compound 0.01 µM) was 122%, the viability, T/C [19] was 121% and the viability, T/C [20] was 86.9%. It also gave a viability, T/C [21] of 51.6%, a viability, T/C [22] of 46.2% and a viability, T/C (second compound 10 µM, first compound 0.00316 µM) of 121%. The viability, T/C (second compound 10 µM, first compound 0.01 µM) was 124%, the viability, T/C [25] was 115% and the viability, T/C [26] was 74.5%. The viability, T/C [27] was 57.6% and the viability, T/C [28] was 45.9%.
`COc1ccc([C@@H](O)c2cc(-c3ncnc4cc(N5CCOCC5)ccc34)c(F)cc2Cl)nn1` + CC(CO)NC(=O)c1cc(-c2ccc(Cl)cc2)nn(-c2cnn(C)c2)c1=O was tested, and the IC50 (second compound 0.1 µM) was 5550 nM, the IC50 (second compound 0.316 µM) was 4860 nM and the IC50 (second compound 1 µM) was 6020 nM. It also gave an IC50 (second compound 3.16 µM) of 4180 nM, an IC50 (second compound 10 µM) of 4860 nM and a viability, T/C [1] of 109%. For the same compound, the viability, T/C [2] was 111%, the viability, T/C [3] was 105% and the viability, T/C [4] was 89.2%. It also gave a viability, T/C [5] of 64.2%, a viability, T/C [6] of 35.7% and a viability, T/C [7] of 113%. For the same compound, the viability, T/C [8] was 115%, the viability, T/C [9] was 104% and the viability, T/C [10] was 87.2%. It also gave a viability, T/C [11] of 57.8%, a viability, T/C [12] of 36.7% and a viability, T/C [13] of 117%. The viability, T/C [14] was 112%, the viability, T/C [15] was 102% and the viability, T/C [16] was 85.8%. For the same compound, the viability, T/C [17] was 65.1%, the viability, T/C [18] was 38.3% and the viability, T/C [19] was 111%. The viability, T/C [20] was 106%, the viability, T/C [21] was 102% and the viability, T/C [22] was 84%. The viability, T/C [23] was 52.9%, the viability, T/C [24] was 38.7% and the viability, T/C [25] was 95.6%. It also gave a viability, T/C [26] of 97.5%, a viability, T/C [27] of 99.9% and a viability, T/C [28] of 82.5%. For the same compound, the viability, T/C [29] was 56.9% and the viability, T/C [30] was 39.5%.
In the case of `O=C(C=Cn1cnc(-c2cc(C(F)(F)F)cc(C(F)(F)F)c2)n1)NNc1cnccn1` + CC(CO)NC(=O)c1cc(-c2ccc(Cl)cc2)nn(-c2cnn(C)c2)c1=O, the IC50 (second compound 0.1 µM) is reported as 305 nM, the IC50 (second compound 0.316 µM) is reported as 314 nM and the IC50 (second compound 1 µM) is reported as 352 nM. For the same compound, the IC50 (second compound 3.16 µM) was 333 nM, the IC50 (second compound 10 µM) was 300 nM and the viability, T/C (second compound 0.1 µM, first compound 0.00949 µM) was 102%. The viability, T/C (second compound 0.1 µM, first compound 0.03 µM) was 108%, the viability, T/C (second compound 0.1 µM, first compound 0.0949 µM) was 89.4% and the viability, T/C (second compound 0.1 µM, first compound 0.3 µM) was 51.8%. The viability, T/C (second compound 0.1 µM, first compound 0.949 µM) was 19.2%, the viability, T/C (second compound 0.1 µM, first compound 3 µM) was 17.2% and the viability, T/C (second compound 0.316 µM, first compound 0.00949 µM) was 109%. It also gave a viability, T/C (second compound 0.316 µM, first compound 0.03 µM) of 103%, a viability, T/C (second compound 0.316 µM, first compound 0.0949 µM) of 87.7% and a viability, T/C (second compound 0.316 µM, first compound 0.3 µM) of 53.3%. For the same compound, the viability, T/C (second compound 0.316 µM, first compound 0.949 µM) was 19.6%, the viability, T/C (second compound 0.316 µM, first compound 3 µM) was 18.4% and the viability, T/C (second compound 1 µM, first compound 0.00949 µM) was 107%. The viability, T/C (second compound 1 µM, first compound 0.03 µM) was 102%, the viability, T/C (second compound 1 µM, first compound 0.0949 µM) was 94.8% and the viability, T/C (second compound 1 µM, first compound 0.3 µM) was 55.1%. For the same compound, the viability, T/C (second compound 1 µM, first compound 0.949 µM) was 20.8%, the viability, T/C (second compound 1 µM, first compound 3 µM) was 18.6% and the viability, T/C (second compound 3.16 µM, first compound 0.00949 µM) was 108%. For the same compound, the viability, T/C (second compound 3.16 µM, first compound 0.03 µM) was 100%, the viability, T/C (second compound 3.16 µM, first compound 0.0949 µM) was 91.7% and the viability, T/C (second compound 3.16 µM, first compound 0.3 µM) was 51.5%. For the same compound, the viability, T/C (second compound 3.16 µM, first compound 0.949 µM) was 28.2%, the viability, T/C (second compound 3.16 µM, first compound 3 µM) was 21.9% and the viability, T/C (second compound 10 µM, first compound 0.00949 µM) was 97%. For the same compound, the viability, T/C (second compound 10 µM, first compound 0.03 µM) was 102%, the viability, T/C (second compound 10 µM, first compound 0.0949 µM) was 100% and the viability, T/C (second compound 10 µM, first compound 0.3 µM) was 50%. For the same compound, the viability, T/C (second compound 10 µM, first compound 0.949 µM) was 22.6% and the viability, T/C (second compound 10 µM, first compound 3 µM) was 24.4%.
